The text below walks through data of patent publication US11639368B2, “Method for preventing and treating hyperpermeability” (Apeptico Forschung UND E[…], priority 2009, dated 2023).

“Also recorded” adds a separate entry of the source.

Series [1] concerns arterial endothelial cells. Briefly: Reactive oxygen molecules in endothelial cells under oxygen deficiency, measured by EPR. The format is cell-based. As to conditions: oxygen deficiency (0.1% oxygen, hypoxic gas mixture), 50 μg/ml of peptide. How it is done: Cell Culture of Endothelial Cells
For the generation of reactive oxygen molecules, arterial endothelial cells were cultivated in an oxygen-deficient gas mixture of 0.1% oxygen, 5% […] and 94.9% nitrogen (hypoxic gas mixture). In control experiments, the gas concentrations were 21% oxygen, 5% […] and 74% nitrogen (normoxic gas mixture).
After 90 minutes under oxygen-deficient conditions, the endothelial cells were cultivated with 21% oxygen for a further 30 minutes. Thereafter, 20 μl of a solution consisting of 20 uM 1-hydroxy-3-methoxycarbonyl-2,2,5,5-tetramethylpyrrolidine HCl (CHM), 20 μM DPBS, 25 μM desferrioxamine and 5 μM diethyldithiocarbamate as well as 2 μl of DMSO were added to the cells.
Trypsinization of the Cells.
Following cell culture, the cells were individualized in a manner common in the laboratory by adding a trypsin solution. The endothelial cells were washed and suspended in 35 μl of a solution consisting of DPBS and 25 μM desferrioxamine and 5 μM diethyldithiocarbamate.
Measurement of the Electron Paramagnetic Resonance (EPR)
The determination of the electron paramagnetic resonance (EPR), also called electron spin resonance, serves the investigation of paramagnetic substances, e.g. for detection of unpaired electrons in reactive oxygen molecules (radicals of the oxygen). […]

Series [2] relates to human endothelial cells of the lungs. Briefly: Toxin-induced hyperpermeability, transendothelial electric resistance (ECIS), endothelial cells. The format is cell-based. As to conditions: 500 ng/ml of listeriolysin, 50 μg/ml of peptide.
The test system of series [3] is Human epithelial cells of the lungs of type H441. Description: Toxin-induced hyperpermeability, electric resistance (ECIS), epithelial cells. In kind it is cell-based. As to conditions: 1 μg/ml of listeriolysin, 50 μg/ml of peptide. How it is done: (§1) Human epithelial cells of the lungs of type H441 were acquired from the company ATTC.
(§2) The microbial toxins listeriolysin (LLO) and pneumolysin (PLY) were acquired from the University of Giessen.
Epithelial cells of the lungs of type H441 were cultivated in a manner common in the laboratory in a commercial RPMI 1640 medium with the additives 2 mM L-glutamine, 1.5 g/l of sodium carbonate, 4.5 g/l of glucose, 10 mM HEPES buffer pH 7.4, 10% bovine serum. The ECIS experiments took place in serum-free medium.
In order to cause hyperpermeability, i.e. injuries of the endothelial cells and epithelial cells, the human epithelial cells of the lungs as well as the human endothelial cells of the lungs were cultivated in a manner common in the laboratory up to the formation of a continuous cell layer, and subsequently, the toxins listeriolysin or pneumolysin, respectively, were added.

In another series the test system is myosin light chain. Description: Phosphorylation of the myosin light chain (protein blot, densitometry). As to conditions: human endothelial lung cells; for increase in the content of phosphorylated myosin light chain by listeriolysin: 250 ng/ml of listeriolysin, 50 μg/ml of peptide. In kind it is cell-based.
From the text: Human endothelial cells of the lungs, isolated from capillaries of the lungs, were acquired from the company Lonza.
as §2
Human endothelial cells of the lungs, isolated from capillaries of the lungs, were cultivated in a manner common in the laboratory.
Determination of Phosphorylation of the Myosin Light Chain
For the determination of phosphorylation of the myosin light chain and the influence of the peptide SEQ ID No. 1 on the phosphorylation, the previously cultivated human endothelial cells of the lungs were washed with phosphate buffer pH 7.4, which contained 1 mM orthovanadate. The cell contents was lysed by incubation of the cells with a solution of 20 mM tris buffer (pH 7.4), 150 mM mol/1 of NaCl, 1 mM EDTA, 1 mM EGTA, 1% Triton X-100, 2.5 mM sodiumpyrophosphate, 1 mM betaglycerophosphate, 1 mM sodiumvanadate, 1 μg/ml of leupeptine, 1 mM phenylmethylsulfonylfluoride. In addition, the cells were digested with ultrasound. The cell lysate was centrifuged in order to obtain the soluble components. The soluble cell lysate was subsequently applied to denaturing sodium dodecyl sulfate polyacrylamide gel electrophoresis in a manner common in the laboratory, and the proteins were separated according to their masses. Thereafter, the proteins were transferred onto nitrocellulose membranes. The protein blots were treated with a solution of 0.1% Tween 20 and 5% dry milk powder for 1 hour in a manner common in the laboratory. Subsequently, the protein blots were incubated with antibodies directed against either the myosin light chain or the phosphorylated myosin light chain.
In order to make either the myosin light chain or the phosphorylated myosin light chain visible, the antibodies were made visible on diagnostic film using chemiluminescence in a manner common in the laboratory. The signal strength was determined with densitometry, and the ratio of myosin light chain to phosphorylated myosin light chain was determined.

For series [4], the system named is epithelial sodium channel (ENaC). Description: Expression of the epithelial sodium channel by real-time PCR in H441 cells. The format is cell-based, human. As to conditions: 50 μg/ml of peptide, H441 epithelial cells of the lungs. How it is done: as §1
Epithelial cells of the lungs of type H441 were cultivated in a manner common in the laboratory in a commercial RPMI 1640 medium with the additives 2 mM L-glutamine, 1.5 g/l of sodium carbonate, 4.5 g/l of glucose, 10 mM HEPES buffer pH 7.4, 10% bovine serum.
Verification of the Expression of the Epithelial Sodium Channel
In the cultivated epithelial cells, the expression of the sodium channel (ENaC) was determined by means of “real-time PCR”.

The subject of the next series is influenza A virus. Briefly: Course of disease in mice with viral lung infection. The format is in vivo, BALB/c mice. As to conditions: influenza A infected mice. How it is done:
The following animal study groups were examined in respect of the effect of peptide SEQ ID No. 1 on a viral lung infection:
Group 1. Negative control (PBS via nasal).
Group 2. Positive control (infection with approx. 2,000 units of influenza A virus via nasal).
Group 3. Test group (infection with approx. 2,000 units of influenza A virus via nasal, as well as intratracheal administration of 10 μg of peptide SEQ ID No. 1).
In each group, 6 BALB/c mice were used.
The following treatment scheme was followed:
Group 1: Administration of PBS via nasal.
Group 2: Infection of the mice with influenza virus A via nasal.
Group 3: Infection of the mice with influenza virus A via nasal and administration of peptide SEQ ID No. 1.
Days of treatment 0, 2, 4, 6, 8:
Group 1: Intratracheal administration of PBS.
Group 2: Intratracheal administration of PBS.
Group 3: Intratracheal administration of peptide SEQ ID No. 1.
Days of treatment 0 to 10:
Daily observation of body temperature, body weight and survival rate of the test animals.

Series [5] is described as follows: Lavage-induced large animal ARDS model. The format is in vivo, pigs. How it is done: Material & methods: With the consent of the competent animal protection commission, lung damage was induced in two pigs (25 kg) under general anesthesia by surfactant depletion (four-time bronchoalveolar lavage, 30 ml/kg of body weight each). Subsequently, 1 mg/kg of body weight AP301 (peptide SEQ ID No. 1) was endotracheally applied. Animal 1 (1) received a deep tracheal injection of the overall dose, while for animal 2 (2), nebulization of the same dosage over 30 min was performed. Thereafter, there was a five-hour ventilation period. The arterial oxygen partial pressure (paO2) was recorded using an intra-aortic real-time measuring probe (FOXY, Ocean Optics, USA) validated in advance. Spirometry and hemodynamics were permanently registered as well as measurements with the PiCCO technology performed at half-hour intervals.
The ventilation settings were constantly kept in the non-protective range (Pmax 40 mbar, tidal volume≥10 ml/kg of body weight, PEEP≤10 mbar, frequency 25-35/min) in order to avoid therapeutic effects. […] 162.8 mmHg (1) or 224.6 mmHg (2), respectively. With nebulization of AP301, this occurred delayed compared to the deep tracheal application, however, it was more pronounced.

For series [6], the system named is hyperpermeability of the lungs of mice. Briefly: Pneumolysin-induced hyperpermeability and acute lung damage in mice (Evans blue, leukocytes in bronchoalveolar liquid). As to conditions: 250 ng of pneumolysin and 50 μg of peptide per mouse intratracheal, 5.5 hours.

For `C[C@@H]1NC(=O)CNC(=O)[C@H](CCC(=O)O)NC(=O)[C@@H]2CCCN2C(=O)[C@H]([C@@H](C)O)NC(=O)[C@H](CCC(=O)O)NC(=O)[C@H](CCCNC(=N)N)NC(=O)[C@H](CCC(N)=O)NC(=O)CNC(=O)[C@@H](N)CSSC[C@@H](C(=O)O)NC(=O)[C@H](Cc2ccc(O)cc2)NC(=O)[C@H](Cc2c[nH]c3ccccc23)NC(=O)[C@@H]2CCCN2C(=O)[C@H](CCCCN)NC(=O)[C@H](C)NC(=O)[C@H](CCC(=O)O)NC1=O` [peptide SEQ ID No. 1, CGQRETPEGAEAKPWYC], the “formation of reactive oxygen molecules by the endothelial cells” value in series [1] is listed as “no reactive oxygen molecules are formed”. Besides, in series [2], the “hyperpermeability caused by the toxin listeriolysin (electric resistance)” value is listed as “inhibited”. For the same compound, the “hyperpermeability caused by the toxin listeriolysin (electric resistance)” value in series [3] is “inhibited”. The “increase in the content of phosphorylated myosin light chain by listeriolysin” value in the series on myosin light chain was “inhibits”. The “content of phosphorylated myosin light chain, peptide alone” value with myosin light chain (50 μg/ml of peptide without toxin) is reported as “no influence”. Moreover, the “expression of the sodium channel ENaC (mRNA)” value in series [4] is “triplication; also recorded: substantial increase”. For the same compound, the “reduction of body weight” value with influenza A virus (10 μg of peptide intratracheal on days 0, 2, 4, 6, 8, within 10 days) is on record as “approx. 10%”. Further, the “body temperature after 7 days” value with influenza A virus (10 μg of peptide intratracheal, after 7 days) amounted to 35 °C. Also, in the series on influenza A virus (10 μg of peptide intratracheal, fraction of test animals, 10 days), the “mortality after 10 days” value is on record as “⅓”. Further, in the series on influenza A virus (10 μg of peptide intratracheal, recovery after day 7), the “body temperature subsequently (after day 7)” value amounted to 37 °C. Also, in the series with influenza A virus (in words), the “decrease in body weight (overall conclusion)” value was “reduces the decrease”, the “lowering of the body temperature (overall conclusion)” value is recorded as “reduces the lowering” and the “survival rate (overall conclusion)” value is “clearly increased”. In addition, the “paO2 increase, max.” value in series [5] (animal 1, 1 mg/kg deep tracheal injection) is 162.8 mmHg. Besides, the “paO2 increase, max.” value in series [5] (animal 2, 1 mg/kg nebulization over 30 min) worked out at 224.6 mmHg. The “duration of continuous improvement of oxygenation” value in series [5] (both pigs, 1 mg/kg endotracheally) was “about 1.5 hours”. Further, the “reduction of the extra-vascular lung water compared to the initial value following surfactant depletion” value in series [5] (pigs, 1 mg/kg endotracheally, PiCCO) is 15.8-52.5%. The “undesired hemodynamic effects during application of the drug” value in series [5] (pigs, 1 mg/kg of body weight endotracheally) is “no undesired hemodynamic effects”. Besides, in series [6], the “number of leukocytes in the bronchoalveolar liquid” value is reported as “clear reduction; also recorded: clearly less leukocytes” and the “toxin-mediated development of hyperpermeability (Evans blue dye in lung tissue)” value is recorded as “inhibition”.
“CGQREAPAGAAAKPWYC [peptide SEQ ID No. 3, reference compound]”: the “formation of reactive oxygen molecules by the endothelial cells” value in series [1] is on record as “does not result in an inhibition”. Moreover, the “increase in the content of phosphorylated myosin light chain by listeriolysin” value in the series with myosin light chain was “no influence”. Besides, the “expression of the sodium channel ENaC (mRNA)” value in series [4] is recorded as “no substantial increase”.
